SMILES strings stand for the structures. Like-named read-outs stand apart in the source and are kept apart here.

In one assay the test system is L363 cells. Briefly: L363 cell viability (MTS). The assay is classed as cell-based, human. As to conditions: Homo sapiens. Here is the method:
Since two thirds of multiple myeloma cases involve deregulated c-MYC expression (Kuehl and Bergsagel, Blood 2012, 120, 2351; Shou, et al., Proc Natl Acad Sci USA 2000, 97, 228), we elected to evaluate the cell viability effects of Compound 1 in a multiple myeloma model. […] This suppression was maintained over 72 hours, which is notable given the characteristic rapid replenishment of the protein—a phenomenon that complicates targeting c-Myc at the protein level (FIG. 4C). This effect was maintained across a genetically diverse set of 4 multiple myeloma lines. We observed decreases in c-MYC translation in all lines tested, and this effect also correlated with decreases in viability (FIG. 4D).
Human multiple myeloma and Burkitt's Lymphoma cell lines L363, CA46, MM-1R, KMS-11, and MM-1S were cultured and authenticated as previously described (Simmons, et al., Molecular oncology 2014, 8, 261). All plasma derived cell lines were cultured in RPMI-1640 (2 mM L-glutamine, 10% fetal bovine serum (FBS), 100 U/ml penicillin, 100 μg/ml streptomycin: Gibco) and incubated at 37° C. with 5% CO2. Viability experiments were performed in quadruplicate on 96-well plates (Costar) at designated time and dose points. MTS reagent was then directly added, incubated at 37° C. for 90 min, and absorbance of MTS formazan was read at 500 nm on an Omega 640 spectrophotometer. Percentage cell viability was normalized to the absorbance of untreated (DMSO) wells. In the case of cells harvested for their protein or RNA, pellets were flash frozen and stored at −80° C. overnight prior to use. […]

The subject of assay [1] is RB1, VEGFA, KRAS, HIF1α, BCL2 expression in L363 cells. The assay can be described thus: Gene expression analysis (Nanostring, qPCR), other G4-associated genes. In kind it is cell-based, human. As to conditions: for expression of other G-quadruplex containing genes (qPCR): L363 cells. Here is the method:
Gene expression analysis was performed on a panel of 770 cancer-associated genes in a multiplexed (nanostring) transcriptional assay. In addition to c-MYC itself, several c-Myc target genes were included in the panel, as were a number of other quadruplex-driven genes. […] Additionally, a third data set was collected comparing Compound 1 treatment to JQ-1 (a BET-bromodomain inhibitor) and quarfloxin (another quadruplex-binding small molecule).
The effects of Compound 1 on a number of known quadruplex-driven genes in the panel were examined further (FIG. 6). Expression levels of MYC, RB1, VEGFA, KRAS, and HIF1α, all of which are reported to be under the control of promoter G4s, and are expressed in L363 cells, were included in the panel of genes evaluated by Nanostring as discussed above. […] These changes in gene expression are in line with biophysical measurements of compound affinity. Corresponding data showing similar results is presented for Compounds 1 and 23 in FIGS. 14A and 14B. […] These observations further highlight the ability of Compound 1 and Compound 23 to specifically target the expression of c-Myc and related pathways.
The phenotype for c-MYC genetic knockdown in multiple myeloma was achieved through lentiviral transduction of shRNA for c-MYC, derived from the spinoculation of 293T cells and plasmids grown in STBL3 E. coli, and isolated with the Qiagen Plasmid Midi Kit. Aliquots of the plasmids were generously provided by Art Shaffer. RNA of treated myeloma cells at designated time points was isolated with the Qiagen RNeasy kit, and used with the nCounter Human Cancer Reference Kit (NanoString Technologies), surveying changes in expression for […] cancer-related human genes and 6 reference genes. Quantitative changes in expression were analyzed and grouped in the form of a heat map using the programming language, R. All other quantitative statistical packing was performed in GraphPad Prism.

The next assay concerns A498. The assay can be described thus: NCI-60 cell growth (SRB). In kind it is cell-based. The conditions noted are these: A498, Renal Cancer; 10 μM, 48 hours. How it is done: (§1) This example illustrates that Compounds 1 and 23 can be used in inhibit the growth of c-Myc expressing cancer cell lines in vitro. The NCI-60 panel of cancer cell lines (see Shoemaker, Nat. Rev. Cancer, 6, 813-823, 2006, and dtp.cancer.gov/discovery_development/nci-60/) was assayed for cell growth in the presence of 10 μM Compound 1 or Compound 23 for 48 hours. At 48 hours, the assay was terminated by fixation with TCA and determination of relative cell counts by addition of Sulforhodamine B (SRB, see Alley et al., Cancer Research, 48: 589-601, 1988.). Growth percent was determined by comparison of SRB reading of a duplicate plate of cells taken at the time of compound addition to the SRB reading at the termination of the treatment. The following table provides a summary of the percent of growth of each cell line in the panel compared to control (no treatment), as well as the mean delta and range of percent growth compared to control across the panel of cell lines for each treatment condition.

The test system of a further assay is IGROV1. The assay can be described thus: NCI-60 cell growth (SRB). In kind it is cell-based. The conditions noted are these: IGROV1, Ovarian Cancer; 10 μM, 48 hours. How it is done:
as §1

The subject of a further assay is LOX IMVI. Briefly: NCI-60 cell growth (SRB). In kind it is cell-based. As to conditions: Melanoma, 10 μM, 48 hours. Here is the method:
as §1

Another assay concerns MCF7. The assay can be described thus: NCI-60 cell growth (SRB). In kind it is cell-based. As to conditions: MCF7, Breast Cancer; 10 μM, 48 hours. Here is the method: as §1
In a further assay the test system is T-47D. Briefly: NCI-60 cell growth (SRB). The conditions noted are these: Breast Cancer, 10 μM, 48 hours. The assay is classed as cell-based. How it is done: as §1
Assay [2] concerns NCI-60 panel of cancer cell lines. Briefly: NCI-60 cell growth (SRB), summary across the panel. As to conditions: 10 μM, 48 hours; for Growth Percent, Delta: delta across the panel; for Growth Percent, Mean: mean across the panel; for Growth Percent, Range: range across the panel. The assay is classed as cell-based. How it is done: as §1
In a further assay the test system is wild type Pu27 sequence. Briefly: PCR stop assay, wild type sequence. The conditions noted are these: concentrations comparable to the Kd. The assay is classed as biochemical.
[3] abbreviates: L-363, viability of L363 cells, read-out: IC50.
Setting [4] is: 48 hours, 10 μM BRACO-19, 10 μM Compound 1, 7.5 μM Compound 23.

By IC50 is commonly meant the point on the concentration scale where inhibition reaches its midpoint. Turning to `Cc1oc2ccc(O)c(CN3CCCCCC3)c2c1C(=O)Nc1ccc(C(F)(F)F)cc1` [Compound 23], the IC50 came to 3.64 µM in the assay with L363 cells (L-363, L363, read-out: IC50) and 3.6 µM in the assay with L363 cells (setting [3]). In addition, the “expression of other G-quadruplex containing genes (qPCR)” value is “minimally affecting expression of other G-quadruplex containing genes” in [1] (5 μM, 24 or 48 hours) and “minimally affecting expression of other G-quadruplex containing genes” in [1] (setting [4]). Also, the “Growth Percent” value with A498 was 50.48%; in the assay with IGROV1, 54.25%; in the assay on LOX IMVI, 39.15%; in the assay with MCF7, 48.09%; with T-47D, 73.98%. Besides, in assay [2], the “Growth Percent, Delta” value is listed as 67.00%. The “Growth Percent, Mean” value in [2] is listed as 58.56%. For the same compound, the “Growth Percent, Range” value in assay [2] is recorded as 94.23%.
Regarding `Cc1ccc(NC(=O)c2c(C)oc3ccc(O)c(CN4CCCCCC4)c23)cc1` [Compound 1], in the assay with wild type Pu27 sequence, the “inhibition of PCR amplification” value is listed as “dose-dependent inhibition”. Further, the IC50 in the assay with L363 cells (L-363, 72 h, after 72 hours, read-out: IC50 myeloma cell viability) was 7.6 ± 1.1 µM; in the assay with L363 cells (setting [3]) it was 7.6 µM. Further, in assay [1] (10 μM, 2 h to 48 h), the “expression of other G4-associated genes (nanostring)” value was “minimally affected”. For the same compound, the “expression of other genes (qPCR)” value in assay [1] (5, 10 or 12.5 μM, 48 hours) is “minimally affected”. Besides, the “expression of other G-quadruplex containing genes (qPCR)” value in assay [1] (setting [4]) is on record as “minimally affecting expression of other G-quadruplex containing genes”. Besides, the “Growth Percent” value with A498 amounted to 64.12%; in the assay with IGROV1, 81.22%; with LOX IMVI it was 88.87%; in the assay with MCF7 it was 78.41%; in the assay with T-47D, 92.74%. In addition, the “Growth Percent, Delta” value in assay [2] came out at 32.50%. The “Growth Percent, Mean” value in assay [2] was 88.39%. In assay [2], the “Growth Percent, Range” value worked out at 60.47%.

Source of the values: patent US11014902B2, “MYC G-quadruplex stabilizing small molecules and their use” (The United States of America, as represented by the …, priority 2015, dated 2021).
